Reference: US20190201430A1, “TREATING OCULAR NEOVASCULARIZATION” (Massachusetts Eye and Ear Infirmary, priority 2014, published 2019)

How the values were obtained:
[1] = tested on: c-Abl; assay: Western blotting of H2O2 induced c-Abl phosphorylation in HUVEC; format: cell-based, human; details: AICAR 2 mM 2 h
Method: (§1) HUVECs (Lonza, Walkersville, Md.) were cultured in Endothelial Growth Medium (EGM, Lonza, Walkersville, Md.). For all experiments, cells were grown at 37° C. in a humidified atmosphere of 5% CO2 and 95% air. Experiments were performed on cells below passage 3 to 6 grown to 80-90% confluence.
(§2) Protein extraction and western blotting were carried out as described previously (Morizane et al. JBC). Densitometric analysis of bands was performed using ImageJ software. Lane-loading differences were normalized by β-actin.
Cells were transfected with siRNAs using Nucleofection kit (Amaxa Biosysteins, Gaithersburg, Md.), following the manufacturer's protocol. The medium was changed at 6 h after transfection. The down-regulation of each protein was evaluated at 3 days after nucleofection.

[2] = tested on: HUVEC; assay: Albumin endocytosis assay under H2O2 (Alexa555-BSA, confocal); format: cell-based, human; details: AICAR 2 mM 2 h, then H2O2 2 mM 30 min, FIG. 1D
Method: After serum starvation for overnight, HUVECs were pretreated with AICAR (2 mM) for 2 h, and then stimulated with H2O2 (2 mM) for 30 min. We added BSA conjugated with Alexa 555 (50 μg/ml, Life Technologies, Gaithersburg, Md.) in the medium during the experiment. Cells on coverslips were washed three times with cold TBS and fixed in 100% methanol at −20° C. for 15 min. Cells were then permeabilized in 0.3% Triton X-100, 0.15% BSA in TBS with 0.05% Tween 20 (TBST) for 15 min at room temperature and blocked with 0.5% skim milk in TBST for 60 min at room temperature. Cells were incubated in p-caveolin-1 antibody diluted 1:200 and VE-cadherin antibody diluted 1:400 for overnight at 4° C., and then incubated for 2 h in secondary antibody diluted 1:300. Cells were then rinsed three times in TBST before mounting in Toto3 (Life Technologies, Gaithersburg, Md.). Images were acquired with confocal microscope, Leica TCS SP2 spectral confocal laser scanning microscope (Leica Microsystems, Wetzlar, Germany).

[3] = tested on: AMPK; assay: Western blotting of AMPK phosphorylation in HUVEC (Example 1); format: cell-based, human; details: each concentration of AICAR for 2 h, FIG. 2A
Method: as §1, §2

[4] = tested on: HUVECs cocultured with NHDFs; assay: In vitro angiogenesis (tube formation) assay; format: cell-based, human; details: AICAR 0.25, 0.5, 1.0, 2.0 mM; VEGF 12.5 ng/mL; FIG. 8A,B
Method: To evaluate the effects of AICAR on angiogenesis, HUVECs were cocultured with NHDFs in a 24-well plate with or without VEGF and AICAR. NHDF cells were seeded at 1.0×10^5 cells/well and then cultured for 2 wks to form a fibroblast cell sheet. […] Suramin (50 μM) was used as the inhibitor of VEGF. At 3, 7 and 10 days after treatment, cells were fixed at −20° C. in ethanol and acetone (1:1). Subsequently, cells were blocked with 1% bovine serum albumin (BSA) in phosphate-buffered saline for 30 min at room temperature, and then incubated with primary rabbit anti-human CD31 antibody overnight at 4° C. After the cells were washed with Tris-buffered saline (TBS), Alexa Flour 488 goat anti-rabbit IgG was applied for 2 h at room temperature. The tube length was quantified using a Kurabo Angiogenesis Image Analyzer (imaging software; Kurabo, Osaka, Japan).

[5] = tested on: caveolin-1; assay: Western blotting of VEGF induced caveolin-1 phosphorylation in HUVECs; format: cell-based, human; details: AICAR 2 mM 2 h
Method: (§3) Human umbilical vein endothelial cells (HUVECs) were cultured in endothelial growth medium (EGM, Lonza, Walkersville, Md.). Normal human dermal fibroblasts (NHDFs) were cultured in fibroblast basal medium (ATCC, Rockville, Md.). Cells were grown at 37° C. in a humidified atmosphere of 95% air, 5% CO2. Experiments were performed on cells below passage 3 to 6 grown to 80%-90% confluence.
(§4) Protein extraction and Western blotting were carried out as described previously (Morizane et al. JBC (26)). We conducted a densitometric analysis of bands using ImageJ software. Lane-loading differences were normalized by β-actin.
(§5) Cells were transfected with siRNAs using a Nucleofection kit (Amaxa Biosystems, Gaithersburg, Md.), following the manufacturer's protocol. The medium was changed 6 h after transfection. The down-regulation of each protein was evaluated 3 days after nucleofection.

[6] = tested on: c-Abl; assay: Western blotting of VEGF induced c-Abl phosphorylation in HUVECs; format: cell-based, human; details: AICAR 2 mM 2 h
Method: as §3, §4, §5

[7] = tested on: endothelial cells; details: in the absence of VEGF; cited from earlier work
[8] = AMPKα1 or α2 siRNA, VEGF 12.5 ng/mL 10 min, FIG. 13

## NC(=O)c1ncn([C@@H]2O[C@H](CO)[C@@H](O)[C@H]2O)c1N [AICAR, 5-Aminoimidazole-4-carboxamide riboside]
[1]; AMPKα1 or α2 siRNA HUVEC, H2O2 2 mM 30 min, FIG. 3
  inhibitory effect of AICAR on H2O2 induced c-Abl phosphorylation after knockdown of either AMPKα isoform: abolished
[1]; HUVEC, then H2O2 0.5-2.0 mM 30 min, FIG. 1A,C
  H2O2 induced phosphorylation of c-Abl: significantly suppressed
[1]; prdx1 siRNA HUVEC, H2O2 2 mM 30 min, FIG. 6A,C
  inhibitory effect of AICAR on H2O2 induced c-Abl phosphorylation in cells lacking prdx1: abolished
[2]
  H2O2 induced albumin endocytosis: suppressed
  caveolin-1 phosphorylation (immunofluorescence) in albumin endocytosis assay: suppressed
[3]
  AMPK phosphorylation after AICAR administration: phosphorylated AMPK dose-dependently
[4]
  VEGF-induced vascular tube formation (tube length): dose-dependent inhibition
[5]; VEGF 12.5 ng/mL 0 to 60 min, FIG. 11A,C
  VEGF induced phosphorylation of caveolin-1: significantly suppressed
[5]; [8]
  inhibitory effect of AICAR on VEGF-induced caveolin-1 phosphorylation after knockdown of either AMPKα isoform: abolished
[5]; prdx1 siRNA, VEGF 12.5 ng/mL 10 min, FIG. 15A,C
  inhibitory effect of AICAR on VEGF-induced caveolin-1 phosphorylation in cells lacking prdx1: abolished
[6]; VEGF 12.5 ng/mL 0 to 60 min, FIG. 11A,B
  VEGF induced phosphorylation of c-Abl: significantly suppressed
[6]; [8]
  inhibitory effect of AICAR on VEGF-induced c-Abl phosphorylation after knockdown of either AMPKα isoform: abolished
[6]; prdx1 siRNA, VEGF 12.5 ng/mL 10 min, FIG. 15A,B
  inhibitory effect of AICAR on VEGF-induced c-Abl phosphorylation in cells lacking prdx1: abolished
[7]
  endothelial proliferation: suppressed endothelial proliferation
